Measurements: patent US11174268B2, “Benzenesulfonamide compouds and their use as therapeutic agents” (Xenon Pharmaceuticals Inc., priority 2016, dated 2021)
pIC50: −log10 of the molar value. Counter-ions that a name gives are not always drawn.

Legend:
NaV1.6 = NaV1.6 (Homo sapiens (Human), UniProt Q9UQD0); assay: Sodium Influx Assay (Flux), NaV1.6; format: cell-based; conditions: Trex HEK293 cells, ANG2 dye, inactivated state;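 note: Tetracycline-induced cells, compounds applied for one hour at room temperature with modulators holding channels open, IC50 from percent inhibition of sodium influx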
NaV1.1 = NaV1.1 (Homo sapiens (Human), UniProt P35498); assay: Sodium Influx Assay (Flux), NaV1.1; format: cell-based; conditions: Trex HEK293 cells, ANG2 dye, inactivated state;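 note: channels co-expressed with human β1 subunit and held open by modulators, cells exposed to compounds for one hour at room temperature, IC50 from percent inhibition of influx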
NaV1.5 = NaV1.5 (Homo sapiens (Human), UniProt Q14524); assay: Sodium Influx Assay (Flux), NaV1.5; conditions: read-out: Flux NaV1.5 IC50; Trex HEK293 cells, ANG2 dye, inactivated state
Chain of NaV1.5 (Q14524 other isoform, or with tags, fused parts or gaps): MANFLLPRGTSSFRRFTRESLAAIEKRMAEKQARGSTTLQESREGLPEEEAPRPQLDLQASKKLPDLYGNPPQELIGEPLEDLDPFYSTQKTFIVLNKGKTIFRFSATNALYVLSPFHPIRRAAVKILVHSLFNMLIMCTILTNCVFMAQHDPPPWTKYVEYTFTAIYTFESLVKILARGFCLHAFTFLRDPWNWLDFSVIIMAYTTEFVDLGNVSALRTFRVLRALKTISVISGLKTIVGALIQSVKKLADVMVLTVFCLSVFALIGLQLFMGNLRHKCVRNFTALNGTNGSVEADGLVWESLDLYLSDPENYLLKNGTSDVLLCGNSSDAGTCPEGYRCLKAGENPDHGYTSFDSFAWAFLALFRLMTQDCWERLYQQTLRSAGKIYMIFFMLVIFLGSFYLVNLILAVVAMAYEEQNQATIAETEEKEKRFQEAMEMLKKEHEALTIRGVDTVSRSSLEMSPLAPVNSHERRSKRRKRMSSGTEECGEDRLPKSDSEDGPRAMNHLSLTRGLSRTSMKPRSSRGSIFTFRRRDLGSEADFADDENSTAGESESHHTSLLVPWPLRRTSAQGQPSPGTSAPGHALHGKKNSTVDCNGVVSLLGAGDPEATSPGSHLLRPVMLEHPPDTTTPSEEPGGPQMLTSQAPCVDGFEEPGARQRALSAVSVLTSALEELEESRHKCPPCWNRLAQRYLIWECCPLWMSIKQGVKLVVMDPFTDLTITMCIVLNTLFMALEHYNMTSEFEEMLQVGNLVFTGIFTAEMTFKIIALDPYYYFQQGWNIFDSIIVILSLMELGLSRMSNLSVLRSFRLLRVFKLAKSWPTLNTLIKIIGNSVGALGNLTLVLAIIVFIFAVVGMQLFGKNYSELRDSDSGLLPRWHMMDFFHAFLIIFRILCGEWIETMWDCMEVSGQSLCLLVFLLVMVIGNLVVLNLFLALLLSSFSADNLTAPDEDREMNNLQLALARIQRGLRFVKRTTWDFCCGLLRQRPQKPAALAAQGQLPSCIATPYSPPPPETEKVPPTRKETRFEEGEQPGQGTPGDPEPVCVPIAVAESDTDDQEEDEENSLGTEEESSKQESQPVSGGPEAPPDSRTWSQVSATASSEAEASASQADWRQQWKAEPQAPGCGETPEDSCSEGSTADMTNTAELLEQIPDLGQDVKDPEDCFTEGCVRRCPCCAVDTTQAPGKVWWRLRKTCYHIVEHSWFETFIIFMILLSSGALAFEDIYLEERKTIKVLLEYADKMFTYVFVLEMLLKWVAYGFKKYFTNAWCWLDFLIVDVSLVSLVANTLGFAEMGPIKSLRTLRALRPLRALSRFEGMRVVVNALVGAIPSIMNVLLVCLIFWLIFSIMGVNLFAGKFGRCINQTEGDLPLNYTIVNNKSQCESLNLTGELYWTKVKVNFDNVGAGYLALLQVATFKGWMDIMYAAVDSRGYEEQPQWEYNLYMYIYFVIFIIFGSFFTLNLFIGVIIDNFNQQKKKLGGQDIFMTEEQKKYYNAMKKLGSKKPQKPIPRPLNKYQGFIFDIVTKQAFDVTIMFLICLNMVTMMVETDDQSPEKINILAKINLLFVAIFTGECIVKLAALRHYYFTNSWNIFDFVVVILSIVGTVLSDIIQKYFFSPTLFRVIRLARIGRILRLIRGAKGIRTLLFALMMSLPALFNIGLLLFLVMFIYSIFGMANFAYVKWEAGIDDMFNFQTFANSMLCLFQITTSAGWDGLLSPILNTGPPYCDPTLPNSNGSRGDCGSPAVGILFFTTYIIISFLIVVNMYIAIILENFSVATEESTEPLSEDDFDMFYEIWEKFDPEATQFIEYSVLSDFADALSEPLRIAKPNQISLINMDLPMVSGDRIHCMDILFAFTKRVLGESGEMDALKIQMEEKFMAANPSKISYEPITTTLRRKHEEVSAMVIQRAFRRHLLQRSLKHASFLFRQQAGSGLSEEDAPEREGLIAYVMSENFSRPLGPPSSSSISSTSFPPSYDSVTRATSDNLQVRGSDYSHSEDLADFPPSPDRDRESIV

Compound	pIC50 (NaV1.6)	pIC50 (NaV1.1)	pIC50 (NaV1.5)
C[C@H](c1cccc(F)c1CNc1cc(F)c(S(=O)(=O)Nc2cscn2)c(F)c1)N1CCC1 [Example 279, (R)-4-((2-(1-(azetidin-1-yl)ethyl)-6-fluorobenzyl)amino)-2,6-difluoro-N-(thiazol-4-yl)benzenesulfonamide formate]	6.79	4.95	4.52
COCc1ccc(F)c([C@H](C)Nc2cc(F)c(S(=O)(=O)Nc3cscn3)cc2Cl)c1 [Example 280, (S)-5-chloro-2-fluoro-4-((1-(2-fluoro-5-(methoxymethyl)phenyl)ethyl)amino)-N-(thiazol-4-yl)benzenesulfonamide]	5.86	5.06	4.62
C[C@H](Nc1cc(F)c(S(=O)(=O)Nc2cscn2)cc1Cl)c1cc(OC(F)F)ccc1F [Example 281, (S)-5-chloro-4-((1-(5-(difluoromethoxy)-2-fluorophenyl)ethyl)amino)-2-fluoro-N-(thiazol-4-yl)benzenesulfonamide]	5.97	5.15	4.96
O=S(=O)(Nc1cscn1)c1cc(Cl)c(NCc2c(F)ccc(F)c2CN2CC3(CCOCC3)C2)cc1F [Example 282, 4-((2-((7-oxa-2-azaspiro[3.5]nonan-2-yl)methyl)-3,6-difluorobenzyl)amino)-5-chloro-2-fluoro-N-(thiazol-4-yl)benzenesulfonamide 2,2,2-trifluoroacetate]	6.39	5.01	5.18
CN(Cc1c(F)ccc(F)c1CN1CCC1)c1cc(F)c(S(=O)(=O)Nc2cscn2)c(F)c1 [Example 284, 4-((2-(azetidin-1-ylmethyl)-3,6-difluorobenzyl)(methyl)amino)-2,6-difluoro-N-(thiazol-4-yl)benzenesulfonamide 2,2,2-trifluoroacetate]	5.86	4.52	4.52
Cc1cccc(CN2CCC2)c1CNc1cc(F)c(S(=O)(=O)Nc2cscn2)c(F)c1 [Example 285, 4-((2-(Azetidin-1-ylmethyl)-6-methylbenzyl)amino)-2,6-difluoro-N-(thiazol-4-yl)benzenesulfonamide formate]	6.20	5.23	4.57
C[C@H](Nc1cc(F)c(S(=O)(=O)Nc2cscn2)cc1Cl)c1cc(F)c(F)cc1F [Example 286, (S)-5-chloro-2-fluoro-N-(thiazol-4-yl)-4-((1-(2,4,5-trifluorophenyl)ethyl)amino)benzenesulfonamide]	5.47	5.16	5.06
O=S(=O)(Nc1cscn1)c1c(F)cc(N[C@@H]2C[C@H](N3CCC3)c3ccccc32)cc1F [Example 289, 4-(((1R,3S)-3-(azetidin-1-yl)-2,3-dihydro-1H-inden-1-yl)amino)-2,6-difluoro-N-(thiazol-4-yl)benzenesulfonamide]	6.25	5.37	4.52
O=S(=O)(Nc1cscn1)c1cc(Cl)c(NCc2c(Cl)cccc2CN2CC3(CNC3)C2)cc1F [Example 291, 4-((2-((2,6-diazaspiro[3.3]heptan-2-yl)methyl)-6-chlorobenzyl)amino)-5-chloro-2-fluoro-N-(thiazol-4-yl)benzenesulfonamide 2,2,2-trifluoroacetate]	6.43	4.85	4.52
CN1CC2(C1)CN(Cc1cccc(Cl)c1CNc1cc(F)c(S(=O)(=O)Nc3cscn3)cc1Cl)C2 [Example 292, 5-chloro-4-((2-chloro-6-((6-methyl-2,6-diazaspiro[3.3]heptan-2-yl)methyl)benzyl)amino)-2-fluoro-N-(thiazol-4-yl)benzenesulfonamide 2,2,2-trifluoroacetate]	6.20	5.57	5.08
O=S(=O)(Nc1ccon1)c1ccc(NCc2c(F)cccc2CN2CCCC2)c(F)c1F [Example 294, 2,3-difluoro-4-((2-fluoro-6-(pyrrolidin-1-ylmethyl)benzyl)amino)-N-(isoxazol-3-yl)benzenesulfonamide 2,2,2-trifluoroacetate]	6.16	4.52	4.52
O=S(=O)(Nc1ccc(F)cn1)c1c(F)cc(NCc2c(F)cccc2CN2CCC2)cc1F [Example 296, 4-((2-(azetidin-1-ylmethyl)-6-fluorobenzyl)amino)-2,6-difluoro-N-(5-fluoropyridin-2-yl)benzenesulfonamide formate]	5.88	4.77	4.52
O=S(=O)(Nc1cscn1)c1cc(Cl)c(NCc2c(F)ccc3cc[nH]c23)cc1F [Example 298, 5-chloro-2-fluoro-4-(((6-fluoro-1H-indol-7-yl)methyl)amino)-N-(thiazol-4-yl)benzenesulfonamide]	6.11	5.14	4.95
C[C@@H](O)c1cccc(F)c1CNc1cc(F)c(S(=O)(=O)Nc2cscn2)c(F)c1 [Example 299, (R)-2,6-difluoro-4-((2-fluoro-6-(1-hydroxyethyl)benzyl)amino)-N-(thiazol-4-yl)benzenesulfonamide]	5.44	6.16	4.66
O=S(=O)(Nc1ccon1)c1cc(Cl)c(NCc2c(F)cccc2CN2CCC2)cc1F [Example 301, 4-((2-(azetidin-1-ylmethyl)-6-fluorobenzyl)amino)-5-chloro-2-fluoro-N-(isoxazol-3-yl)benzenesulfonamide formate]	6.31	4.52	4.52
O=S(=O)(Nc1cscn1)c1c(F)cc(NCc2c(F)cccc2CN2CCC2)cc1F [Example 302, 4-((2-(azetidin-1-ylmethyl)-6-fluorobenzyl)amino)-2,6-difluoro-N-(thiazol-4-yl)benzenesulfonamide 2,2,2-trifluoroacetate]	7.31	5.01	4.62
O=S(=O)(Nc1cscn1)c1c(F)cc(NCc2c(F)cccc2CN2CCC2)c(Cl)c1F [Example 303, 4-((2-(azetidin-1-ylmethyl)-6-fluorobenzyl)amino)-3-chloro-2,6-difluoro-N-(thiazol-4-yl)benzenesulfonamide 2,2,2-trifluoroacetate]	8.15	5.24	4.61
Cc1c(NCc2ccccc2CN2CCC2(C)C)cc(F)c(S(=O)(=O)Nc2cscn2)c1F [Example 305, 4-((2-((2,2-dimethylazetidin-1-yl)methyl)benzyl)amino)-2,6-difluoro-3-methyl-N-(thiazol-4-yl)benzenesulfonamide 2,2,2-trifluoroacetate]	7.24	4.85	4.52
Cc1c(NCc2c(F)cccc2CN2CCC2(C)C)ccc(S(=O)(=O)Nc2cscn2)c1F [Example 306, 4-((2-((2,2-dimethylazetidin-1-yl)methyl)-6-fluorobenzyl)amino)-2-fluoro-3-methyl-N-(thiazol-4-yl)benzenesulfonamide]	6.62	4.74	5.09
O=S(=O)(Nc1cscn1)c1cc(F)c(NCc2c(F)cccc2CN2CCC2)cc1F [Example 308, 4-((2-(azetidin-1-ylmethyl)-6-fluorobenzyl)amino)-2,5-difluoro-N-(thiazol-4-yl)benzenesulfonamide]	6.22	4.59	4.58
O=S(=O)(Nc1cscn1)c1c(F)cc(NCc2c(Cl)ccc(F)c2CN2CCC2)cc1F [Example 309, 4-((2-(azetidin-1-ylmethyl)-6-chloro-3-fluorobenzyl)amino)-2,6-difluoro-N-(thiazol-4-yl)benzenesulfonamide 2,2,2-trifluoroacetate]	7.07	5.20	4.56
O=S(=O)(Nc1ccncn1)c1c(F)cc(NCc2ccccc2CN2CCC2)cc1F [Example 311, 4-((2-(azetidin-1-ylmethyl)benzyl)amino)-2,6-difluoro-N-(pyrimidin-4-yl)benzenesulfonamide formate]	6.66	4.58	4.52
Cc1cc(NCc2ccccc2CN2CCC2)c(F)c(F)c1S(=O)(=O)Nc1cscn1 [Example 312, 4-((2-(azetidin-1-ylmethyl)benzyl)amino)-2,3-difluoro-6-methyl-N-(thiazol-4-yl)benzenesulfonamide 2,2,2-trifluoroacetate]	6.87	5.14	5.02
Cc1c(NCc2c(Cl)ccc(F)c2CN2CCC2)cc(F)c(S(=O)(=O)Nc2cscn2)c1F [Example 313, 4-((2-(azetidin-1-ylmethyl)-6-chloro-3-fluorobenzyl)amino)-2,6-difluoro-3-methyl-N-(thiazol-4-yl)benzenesulfonamide 2,2,2-trifluoroacetate]	7.85	5.43	4.84
Cc1cc(NCc2c(F)cccc2CN2CC(C)(C)C2)c(F)c(F)c1S(=O)(=O)Nc1cscn1 [Example 314, 4-((2-((3,3-dimethylazetidin-1-yl)methyl)-6-fluorobenzyl)amino)-2,3-difluoro-6-methyl-N-(thiazol-4-yl)benzenesulfonamide 2,2,2-trifluoroacetate]	7.49	4.52	4.52
Cc1c(NCc2c(F)cccc2CN2CCC2)ccc(S(=O)(=O)Nc2ccon2)c1F [Example 315, 4-((2-(azetidin-1-ylmethyl)-6-fluorobenzyl)amino)-2-fluoro-N-(isoxazol-3-yl)-3-methylbenzenesulfonamide 2,2,2-trifluoroacetate]	6.57	4.52	4.52
O=S(=O)(Nc1cnsc1)c1c(F)cc(NCc2c(F)cccc2CN2CCC2)cc1F [Example 318, 4-((2-(azetidin-1-ylmethyl)-6-fluorobenzyl)amino)-2,6-difluoro-N-(isothiazol-4-yl)benzenesulfonamide]	5.22	4.69	4.76
